Here are results for 2 substances from US20060293231A1, “Method for enhancing bone formation” (priority 2004, published 2006).

Values joined by “and” are separate entries in the source; they are usually repeats but may differ in a detail not shown here. Equal entries are not always repeated. “Also recorded” adds a separate entry of the source.

Format in all cases: cell-based, human
Assay [1] has as its system platelet-rich plasma (PRP). Kind of assay: Clotting time of platelet-rich plasma (visual). Here is the method: (§1) PRP composites were prepared by mixing PRP and TRAP with bone substitutes commonly utilized in the clinical setting. Twenty four-well plates (Corning Inc., Corning, N.Y.) were coated with 1% bovine serum albumin (Sigma, St. Louis, Mo.) and incubated for 1.5 hours at 37° C. Sterilized BioOss (25 mg, 0.5-1.0 mm), AlloGro (25 mg), and 45S5 Bioactive Glass (25 mg, […]) were uniformly dispersed within the wells. Fresh PRP (0.5 ml) aliquots were then dispensed into the pre-coated 24-well plates, and 30 μl of 10% calcium chloride solution were added to each well. Experiments were performed in triplicate (n=3) with the addition of bovine thrombin (75 units) or thrombin receptor activating peptide (TRAP, H2N-Ser-Phe-Leu-Leu Arg-Asn-NH2). TRAP was used to clot PRP for all bone substitute groups examined. • Growth Factor Release—Effects of Bone Substitute and Incubation Mode
(§2) PRP (0.5 mL) aliquots were dispensed into 24-well plates precoated with 1% bovine serum albumin (Sigma, St Louis, Mo.). Thirty microliters of 10% CaCl2 solution (American Reagent Laboratories, Shirley, N.Y.) were added to each well. Experiments were performed in triplicate (n=3) with the addition of bovine thrombin (30, 100, 300 units; GenTrac, Middleton, Wis.) or TRAP (10, 50, 100 μmol/L; Bachem Bioscience Inc, King of Prussia, Pa.). At 30 minutes, if still attached, the clots were gently released from the sides of the culture well with a pipette tip. PRP prepared with CaCl2 solution […] the addition of thrombin or TRAP served as the control group.
(§3) Clotting times were monitored by visualization. Clot retraction was determined by measuring the clot diameter at 1, 2, 4, and 24 hours, and the value was normalized against the well diameter. • Preparation of Platelet-Rich Plasma-Bone Substitute Composites with Thrombin Receptor Agonist Peptide-6
(§4) After the optimization of TRAP concentration, experiments were repeated with the addition of 25 or 50 mg of bone substitutes. To minimize nonspecific binding, the culture well (Corning Inc, Corning, N.Y.) was precoated with 1% bovine serum albumin (Sigma) and incubated for 1.5 hours at 37° C. Sterilized BioOss (25 mg, 0.5 to 1.0 mm; Osteohealth, Shirley, N.Y.), AlloGro (25 mg; Ceramed, Lakewood, Colo.), and 45S5 Bioactive Glass (25 mg, 300 μm; Mo-Sci, Rolla, Minn.) were uniformly dispersed within the wells. Fresh PRP (0.5 mL) aliquots were then dispensed into the precoated 24-well plates, and 30 μl of 10% CaCl2 solution (American Reagent Laboratories, Shirley, N.Y.) was added to each well. Experiments were performed in triplicate (n=3) with the addition of TRAP (H2N-Ser-Phe-Leu-Leu-Arg-Asn-NH2) to the wells containing bone substitutes. • Growth Factor Release from Platelet-Rich Plasma Prepared with Thrombin or Thrombin Receptor Agonist Peptide-6

Assay [2] relates to platelet-rich plasma (PRP). Kind of assay: PRP clot retraction (clot diameter normalized against well diameter; released fluid volume). Here is the method: as §2, §3, §4
(§5) The temporal release of growth factors was examined as a function of time and mode of PRP preparation. Specifically, the PRP clotted with thrombin or TRAP was allowed to gel, and all samples were incubated at 37° C. in a humidified environment for up to 14 days. The volume of fluid released from the clot was measured. Growth factor release was assessed at 1, 3, 7, and 14 days. All collected supernatant samples were stored at −70° C. before analysis. • Quantification of Platelet-Derived Growth Factor and Transforming Growth Factor-β

Another assay relates to PDGF-AB. Kind of assay: PDGF-AB release from PRP clots and PRP composites (sandwich enzyme immunoassay of supernatant). Conditions: for effect of media exchange on PDGF release: Group 1 (dynamic mode) versus Group 2 (static mode, less frequent exchange). Here is the method: as §1
(§6) The temporal release of growth factors was examined as a function of bone substitute and mode of sample incubation. Specifically, the PRP composites were allowed to clot, and all samples were incubated at 37° C. and humidified environment for up to 14 days. The media were exchanged for all groups at 1 day after incubation. The volume of fluid released from the clot was measured and equal volume of fresh Dulbecco's Modification of Eagle's Medium (DMEM, Mediatech, Herdon, Va.) without serum was added back to each well. Subsequently, in the dynamic incubation mode (Group 1), the fluid released from the clot was collected and equal volume of fresh DMEM was added back into the well at 3, 7, and 14 days. In the static mode (Group 2), the media was exchanged only at the designated time points (7 and 14 days). All collected supernatant samples were stored at −70° C. prior to analyses. • Quantification of PDGF and TGFβ
Supernatants collected from all time points for both Group 1 and 2 were assayed for PDGF-AB and TGFβ content using diagnostic kits from R & D Systems (Minneapolis, Minn.). Both assays are based on a sandwich enzyme immunoassay technique. The PDGF-AB assay uses a pre-coated microtiter plate with a monoclonal antibody to PDGF-AA. Preparation and dilution of samples and standards were performed as directed by the manufacturer. Both the standards and the samples were incubated for 3 hours at room temperature. The plate was washed with buffer and a conjugated antibody to PDGF-BB was added to the wells and incubated at room temperature for an additional 1 hour. The plate was then washed and substrate added for 20 minutes at room temperature. The reaction was stopped and absorbance was determined at 450 nm using a spectrophotometer (SpectraFluor Plus, Tecan, Maennedorf, Switzerland). A standard curve was generated and the PDGF-AB levels (pg/ml) of each sample were determined. The total amount of growth factor was calculated based on the amount of supernatant obtained after clot retraction.
as §5
Supernatants were assayed for PDGF-AB and TGFβ content using diagnostic kits from R & D Systems (Minneapolis, Minn.). Both assays are based on a sandwich enzyme immunoassay technique. The PDGF-AB assay used a precoated microtiter plate with a monoclonal antibody to PDGF-AA. Preparation and dilution of samples and standards were performed as directed by the manufacturer. Both the standards and the samples were incubated for 3 hours at room temperature. […]

The next assay deals with TGFβ. Kind of assay: TGFβ release from PRP clots and PRP composites (enzyme immunoassay of supernatant). Conditions: for TGFβ release/retention post clotting, comparison between groups: day 1 post clotting, p<0.05. Here is the method: as §1, §6
TGFβ was assayed with a similar enzyme immunoassay technique. A dilution series of TGFβ standards was prepared in 100 μl volumes in 96-well microtiter plates coated with TGFβ receptor Type II. The sample supernatants (0.025 ml) obtained from PRP composites were diluted with 0.075 ml of phosphate buffer saline solution. The samples were then activated with 0.1 ml of 1.0 N HCl incubated at room temperature for 10 minutes, neutralized by an addition of 0.1 ml of 1.2 N NaOH/0.5 M HEPES (N-[2-hydroxyethyl] piperazine-N-[2-ethanesulfonic acid]). The supernatant fractions were then incubated for 3 hours at room temperature. The wells were then washed and enzyme-conjugated polyclonal antibody to TGFβ1 was added and allowed to incubate for 1.5 hours at room temperature. The reaction was stopped and absorbance was measured at 450 nm using a spectrophotometer (SpectraFluor Plus, Tecan, Maennedorf, Switzerland). A standard curve was generated and the TGFβ levels (pg/ml) of each sample were determined. The total amount of growth factors was calculated based on the amount of supernatant obtained after clot retraction. • Statistical Analyses
as §5
TGFβ was assayed with a similar enzyme immunoassay technique. A dilution series of TGFβ standards were prepared in 96-well microtiter plates coated with TGFβ receptor Type II. The sample supernatants (0.025 mL) obtained from PRP composites were diluted with 0.075 mL of phosphate-buffered saline solution. […]

Regarding “H2N-Ser-Phe-Leu-Leu-Arg-Asn-NH2 [TRAP, reference compound]”, the “time for the clot to completely solidify” value came to 14.5 min in assay [1] (Example 1, TRAP at 100 μm) and 9.25 min in assay [1] (Example 2, TRAP at 100 μmol/L). Besides, the “decrease in the clot diameter” value in assay [2] (TRAP 50 μmol/L) and in assay [2] (TRAP 100 μmol/L) was 15% each time. The PDGF-AB released in the assay with PDGF-AB (Example 1, at 7 days) is listed as 11,624 pg; in the assay on PDGF-AB (Example 1, day 1) it was 20,642 pg; with PDGF-AB (Example 2, at 7 days, mean±SD) it was 2,797.6±612.0 pg; with PDGF-AB (Example 2, day 1, mean±SD), 20,642±1,170.0 pg. Besides, the “effect of media exchange on PDGF release” value in the assay with PDGF-AB was “no statistically significant effects; also recorded: No significant difference”. Moreover, the “TGFβ retained compared to the thrombin group” value in the assay on TGFβ (Example 1, time not stated (day 1 context)) worked out at 39.2%. In addition, the “TGFβ retained, more than the thrombin group” value in the assay with TGFβ (Example 2, at 72 hours) turned out to be 39.2%. Further, in the assay on TGFβ, the “TGFβ release/retention post clotting, comparison between groups” value is given as “significantly lower levels”.

Take “thrombin: bovine thrombin (GenTrac), serine protease used as standard PRP clotting agent”: the “time to complete polymerization of PRP” value came out at 6 min in assay [1] (Example 1, 30 units of thrombin added to 0.5 ml PRP mixture) and 6 min in assay [1] (Example 2, 30 units of thrombin added to 0.5 mL PRP mixture). Moreover, the “time to clot formation” value came to 1.25 min in assay [1] (Example 1, 100 units thrombin, 0.5 ml PRP); 1.25 min in assay [1] (Example 1, 300 units thrombin, 0.5 ml PRP); 3.25 min in assay [1] (Example 2, 100 units thrombin). The clot retraction in assay [2] (30 units of thrombin) was 34%; in assay [2] (at 24 hours, TRAP with 25 mg bone substitute, thrombin 100 units), 56%±3% and 56%. Further, the “shrinkage of the clot (clot retraction)” value in assay [2] (100 units of thrombin, all time points) is reported as 43%. The “volume of supernatant released from the clot” value in assay [2] (all time points, comparison between groups) is recorded as “largest release volume”. Moreover, the PDGF-AB released in the assay on PDGF-AB (Example 1, at 7 days) is given as 5,068 pg; in the assay on PDGF-AB (Example 1, day 1) it was 32,526 pg; with PDGF-AB (Example 2, at 7 days, mean±SD), 1,738.2 ±443.0 pg; with PDGF-AB (Example 2, day 1, mean±SD) it was 32,526±6,752.4 pg. In addition, the entries for the “effect of media exchange on PDGF release” value with PDGF-AB and with PDGF-AB (listed as Thrombin) were “No significant difference” and “no statistically significant effects”, respectively. The “PDGF-AB release, more than the TRAP group” value in the assay with PDGF-AB (day 1) is reported as “approximately 36%”. For the same substance, in the assay on TGFβ (after 14 days), the “TGFβ release from the clot after 14 days” value is given as “all of the TGFβ present in the original PRP thrombin clots had been released; also recorded: all the TGFβ in thrombin clots was released”. In addition, in the assay with TGFβ, the “TGFβ release/retention post clotting, comparison between groups” value is on record as “highest amount”. Also, the “TGFβ already released from the clot” value in the assay on TGFβ (within 24 hours, of total TGFβ in original PRP) is reported as “over 81.4%”.
